Assay results taken from patent US11124497B1, “Inhibitors of cysteine proteases and methods of use thereof” (priority 2020, dated 2021).
Like-named read-outs stand apart in the source and are kept apart here.

Experiments:
[1] = tested on: HCoV 229E; assay: HCoV 229E cytopathic effect (CPE) assay; assay type: cell-based, Human Coronavirus (HCov) 229E; details: unidentified human coronavirus, CellTiter Glo, read-out: 229 ECPE EC50
Description: Compounds were assayed using standard methods against multiple coronaviral strains, including HCoV 229E and OC43 strains. The antiviral activity of compounds was calculated based on the protection of the virus-induced CPE at each concentration normalized by the virus control.
Cytopathic effect (CPE) was measured by CellTiter Glo following the manufacturer's manual. The antiviral activity of compounds was calculated based on the protection of the virus-induced CPE at each concentration normalized by the virus control.

[2] = molecular target: 229E mPRO (Human coronavirus 229E (HCoV-229E), UniProt P0C6X1); assay: 229E mPRO enzymatic assay; assay type: biochemical, Human Coronavirus (HCov) 229E
Chain of 229E mPRO (P0C6X1 2966-3267 limits assumed): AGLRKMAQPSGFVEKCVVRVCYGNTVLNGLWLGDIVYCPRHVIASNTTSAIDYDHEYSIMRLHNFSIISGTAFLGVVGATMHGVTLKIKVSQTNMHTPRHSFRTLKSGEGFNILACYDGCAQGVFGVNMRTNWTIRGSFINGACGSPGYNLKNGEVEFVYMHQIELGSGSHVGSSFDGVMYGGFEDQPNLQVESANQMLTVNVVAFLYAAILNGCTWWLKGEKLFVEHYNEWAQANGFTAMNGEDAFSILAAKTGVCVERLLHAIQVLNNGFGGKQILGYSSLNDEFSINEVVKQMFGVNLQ
Description: Compounds were assayed using standard methods to assess compound activity and IC50. […] The assay buffer contained 20 mM of Tris-HCl (pH 7.3), 100 mM of NaCl, 1 mM of EDTA, 5 mM of TCEP and 0.1% BSA.
The compounds were added to an assay plate.
IC50 values of compounds were calculated with the GraphPad Prism software using the nonlinear regression model of log(inhibitor) vs. response—Variable slope (four parameters). The inhibition activity was calculated using the formula below, IC50 values was calculated using the Inhibition % data. Inhibition %=[(Sample−Average ZPE)/(Average HPE−Average ZPE)]*100%^# • ^#HEP: Hundred percent effect controls. […] Containing enzyme+substrate, no compound. • Sample: Compound activity testing wells. Containing compound+enzyme+substrate. • BG: Compound background control wells. Containing compound+substrate, no enzyme.

[3] = molecular target: SARS-COV2 Mpro (Severe acute respiratory syndrome coronavirus 2 (2019-nCoV) (SARS-CoV-2), UniProt P0DTD1); assay: COVID-19 (nCoV-2019, SARS-CoV2) Mpro enzymatic assay; assay type: biochemical; details: 25 nM Mpro, 25 μM substrate

| SMILES | EC50 [1] | IC50 ([2]; read-out: 229E mPRO IC50) | IC50 [3] | IC50 ([2]; 229E mPRO IC50 (μM)) |
| --- | --- | --- | --- | --- |
| N#C[C@H](C[C@@H]1CCCNC1=O)NC(=O)[C@H](CC1CC1)NC(=O)c1cc2cccc(Cl)c2[nH]1 (single isomer, unassigned) [639 (Isomer 1)] | < 22 µM | < 22 µM |  |  |
| N#CC1(NC(=O)[C@H](CC2CC2)NC(=O)OCc2ccccc2)C[C@H]2CC[C@@H]1[C@H]1C(=O)NC(=O)[C@@H]21 (single isomer, unassigned) [495 (Isomer 1)] |  | > 30 µM | > 30 µM |  |
| CCCNC(=O)OC(C#N)[C@H](C[C@@H]1CCNC1=O)NC(=O)[C@H](CC(C)C)NC(=O)c1cc2c(OC)cccc2[nH]1 (some centres unmarked) [Compound 581] |  | > 30 µM |  |  |
| CC(C)(C)OC(=O)N1CCCCC12CCN([C@@H](CC1CC1)C(=O)N[C@H](C#N)C[C@@H]1CCNC1=O)C2=O (single isomer, unassigned) [473 (Isomer 1)] |  | > 30 µM |  |  |
| COc1cccc2[nH]c(C(=O)N3C[C@H](C4CCCCC4)C[C@H]3C(=O)N[C@H](C#N)C[C@@H]3CCNC3=O)cc12 [Compound 167, (2S,4S)—N—((S)-1-cyano-2-((S)-2-oxopyrrolidin-3-yl)ethyl)-4-cyclohexyl-1-(4-methoxy-1H-indole-2-carbonyl)pyrrolidine-2-carboxamide] |  | 2 to 10 µM |  |  |
| CCCN1C(=N)C([C@H](C[C@@H]2CCNC2=O)NC(=O)[C@H](CC(C)C)NC(=O)c2cc3c(OC)cccc3[nH]2)OC1=O (some centres unmarked) [Compound 355] | > 30 µM | 2 to 10 µM |  |  |
| CCO[C@@H]1C[C@@H](C(=O)N[C@H](C#N)C[C@@H]2CCNC2=O)N(C(=O)c2cc3c(OC)cccc3[nH]2)C1 [Compound 535] |  | > 30 µM |  |  |
| N#C[C@H](C[C@@H]1CCNC1=O)NC(=O)[C@H](CC1CC1)NC(=O)c1cc2cc(Cl)ccc2[nH]1 [Compound 519] | < 22 µM | < 22 µM |  |  |
| CC[C@H]1CN(C(=O)c2cc3c(OC)cccc3[nH]2)[C@@H]1C(=O)N[C@H](C#N)C[C@@H]1CCNC1=O [Compound 391] |  | > 30 µM | > 30 µM |  |
| COc1cccc2[nH]c(C(=O)N[C@@H](CC(C)C)C(=O)N[C@H](C#N)Cc3ccccn3)cc12 [Compound 439] |  | > 30 µM | 10 to 30 µM |  |
| COc1cccc2[nH]c(C(=O)N[C@@H](CC(C)(C)C)C(=O)N[C@H](C#N)C[C@@H]3CCCNC3=O)cc12 [Compound 643, N-[(1S)-1-[[(1S)-1-cyano-2-[(3S)-2-oxo-3-piperidyl]ethyl]carbamoyl]-3,3-dimethyl-butyl]-4-methoxy-1H-indole-2-carboxamide] | < 22 µM | < 22 µM |  |  |
| COc1cccc2[nH]c(C(=O)N[C@@H](CC3CCC3)C(=O)N[C@H](C#N)C[C@@H]3CCNC3=O)cc12 [Compound 577] | < 22 µM | < 22 µM |  |  |
| COc1cccc2[nH]c(C(=O)N[C@H](C(=O)N[C@H](C#N)C[C@@H]3CCNC3=O)[C@@H]3Cc4ccccc4O3)cc12 [Compound 147] |  | > 30 µM |  |  |
| CN1CCCC[C@]12CCN([C@@H](CC1CC1)C(=O)N[C@H](C#N)C[C@@H]1CCNC1=O)C2=O [Compound 273C] |  | 2 to 10 µM |  |  |
| N#C[C@H](C[C@@H]1CCNC1=O)NC(=O)[C@@H]1C[C@@H](c2ccccc2)CN1C(=O)/C=C/c1ccc(Cl)cc1F [Compound 209, (2S,4S)-1-((E)-3-(4-chloro-2-fluorophenyl)acryloyl)-N—((S)-1-cyano-2-((S)-2-oxopyrrolidin-3-yl)ethyl)-4-phenylpyrrolidine-2-carboxamide] |  | 10 to 30 µM |  |  |
| COc1cccc2[nH]c(C(=O)N[C@@H](CC(C)C)C(=O)N[C@@H](C[C@@H]3CCNC3=O)C(C#N)OC(=O)NC(C)C)cc12 (some centres unmarked) [Compound 583] |  | > 30 µM |  |  |
| COc1cccc2[nH]c(C(=O)N[C@H](C(=O)N[C@H](C#N)C[C@@H]3CCNC3=O)C3Cc4ccccc4C3)cc12 [Compound 149, N-[(1S)-2-[[(1S)-1-cyano-2-[(3S)-2-oxopyrrolidin-3-yl]ethyl]amino]-1-indan-2-yl-2-oxo-ethyl]-4-methoxy-1H-indole-2-carboxamide] | 2 to 10 µM | 2 to 10 µM |  |  |
| N#C[C@H](C[C@@H]1CCNC1=O)NC(=O)[C@H](CC1CC1)N1CCC2(CCCN2)C1=O (some centres unmarked) [Compound 471] |  | 10 to 30 µM |  |  |
| CC(C)C[C@H](NC(=O)/C=C/c1ccc(Cl)cc1F)C(=O)N[C@H](C#N)C[C@@H]1CCNC1=O [Compound 598] | < 22 µM | 2 to 10 µM |  |  |
| COc1cccc2[nH]c(C(=O)N3CC(C45CC(C4)C5)C[C@H]3C(=O)N[C@H](C#N)C[C@@H]3CCNC3=O)cc12 (single isomer, unassigned) [385 (Isomer 2)] |  | < 22 µM |  |  |
| COc1cccc2[nH]c(C(=O)N[C@@H](CC(C)C)C(=O)N[C@@H](C[C@@H]3CCNC3=O)C3OC(=O)N(c4ccccc4)C3=N)cc12 (some centres unmarked) [Compound 359] |  | 10 to 30 µM |  |  |

| SMILES | EC50 [1] | IC50 ([2]; read-out: 229E mPRO IC50) | IC50 [3] | IC50 ([2]; 229E mPRO IC50 (μM)) |
| --- | --- | --- | --- | --- |
| N#C[C@H](C[C@@H]1CCNC1=O)NC(=O)[C@@H]1CCCNN1C(=O)/C=C/c1ccc(Cl)cc1F [Compound 213, (S)-2-((E)-3-(4-chloro-2-fluorophenyl)acryloyl)-N—((S)-1-cyano-2-((S)-2-oxopyrrolidin-3-yl)ethyl)hexahydropyridazine-3-carboxamide] |  | > 30 µM |  |  |
| COc1cccc2[nH]c(C(=O)N3CCC4(CC4)C[C@H]3C(=O)N[C@H](C#N)C[C@@H]3CCNC3=O)cc12 [Compound 183, (S)—N—((S)-1-cyano-2-((S)-2-oxopyrrolidin-3-yl)ethyl)-6-(4-methoxy-1H-indole-2-carbonyl)-6-azaspiro[2.5]octane-5-carboxamide] |  | 2 to 10 µM |  |  |
| COc1cccc2[nH]c(C(=O)N[C@@H](Cc3cccc(Cl)c3)C(=O)N[C@H](C#N)C[C@@H]3CCNC3=O)cc12 [Compound 153] |  | 10 to 30 µM |  |  |
| N#C[C@H](C[C@@H]1CCNC1=O)NC(=O)[C@H](CC1CC1)NC(=O)c1cc2cccc(Cl)c2[nH]1 [Compound 531, 7-chloro-N-[(1S)-2-[[(1S)-1-cyano-2-[(3S)-2-oxopyrrolidin-3-yl]ethyl]amino]-1-(cyclopropylmethyl)-2-oxo-ethyl]-1H-indole-2-carboxamide] | < 22 µM | < 22 µM |  |  |
| CC(C)C[C@H](NC(=O)c1cc2c(OC(F)F)cccc2[nH]1)C(=O)N[C@H](C#N)C[C@@H]1CCNC1=O [Compound 509] | < 22 µM | < 22 µM |  |  |
| N#C[C@H](C[C@@H]1CCNC1=O)NC(=O)[C@@H]1CS[C@H]2CC[C@H](NC(=O)OCC3c4ccccc4-c4ccccc43)C(=O)N21 [Compound 477] |  | > 30 µM |  |  |
| COc1cccc2[nH]c(C(=O)N[C@@H](CC(C)C)C(=O)N[C@@H](C[C@@H]3CCNC3=O)C(C#N)N3CCCC3)cc12 (single isomer, unassigned) [331 (Isomer 2)] |  | < 22 µM |  |  |
| COc1cccc2[nH]c(C(=O)N[C@@H](CC(C)C)C(=O)N[C@@H](C[C@@H]3CCNC3=O)C(C#N)N3CCCC3)cc12 (single isomer, unassigned) [331 (Isomer 1)] | < 22 µM | < 22 µM |  |  |
| COc1cccc2[nH]c(C(=O)N[C@@H](CC(C)C)C(=O)N[C@@H](C[C@@H]3CCNC3=O)C3OC(=O)N(C(C)C)C3=N)cc12 (some centres unmarked) [Compound 357] |  | > 30 µM |  |  |
| COc1cccc2[nH]c(C(=O)N3C[C@H](OC(C)(C)C)C[C@H]3C(=O)N[C@H](C#N)C[C@@H]3CCNC3=O)cc12 [Compound 165, (2S,4R)-4-(tert-butoxy)-N—((S)-1-cyano-2-((S)-2-oxopyrrolidin-3-yl)ethyl)-1-(4-methoxy-1H-indole-2-carbonyl)pyrrolidine-2-carboxamide] |  | > 30 µM |  |  |
| COc1cccc2[nH]c(C(=O)N[C@@H](CC(C)C)C(=O)N[C@H](C#N)Cc3n[nH]c4ccccc34)cc12 (mixture of isomers) [Compound 245] |  | > 30 µM |  |  |
| CC(C)C[C@H](NC(=O)CC(C)(O)c1ccc(Cl)cc1)C(=O)N[C@H](C#N)C[C@@H]1CCNC1=O (single isomer, unassigned) [365 (Isomer 1)] |  |  |  | 2 to 10 µM |
| COc1cccc2[nH]c(C(=O)N[C@@H](CC(C)C)C(=O)N[C@H](C#N)C[C@@H]3CCNC3=O)cc12 [Compound 101, N-[(1S)-1-[[(1S)-1-cyano-2-[(3S)-2-oxopyrrolidin-3-yl]ethyl]carbamoyl]-3-methyl-butyl]-4-methoxy-1H-indole-2-carboxamide] | < 22 µM | < 22 µM |  |  |
| COc1cccc2[nH]c(C(=O)N3CC(C45CC(C4)C5)C[C@H]3C(=O)N[C@H](C#N)C[C@@H]3CCNC3=O)cc12 (single isomer, unassigned) [385 (Isomer 1)] | < 22 µM | < 22 µM |  |  |
| N#C[C@H](C[C@@H]1CCCNC1=O)NC(=O)[C@H](CC1CC1)NC(=O)c1cc2ccc(Cl)cc2[nH]1 [Compound 635, 6-Chloro-N-[(1S)-2-[[(1S)-1-cyano-2-[(3S)-2-oxo-3-piperidyl]ethyl]amino]-1-(cyclopropylmethyl)-2-oxo-ethyl]-1H-indole-2-carboxamide] | < 22 µM |  |  |  |
| N#C[C@H](C[C@@H]1CCNC1=O)NC(=O)[C@H](CC1CC1)NC(=O)c1cc2c(C3CC3)cccc2[nH]1 [Compound 375A] | < 22 µM |  |  |  |
| COc1cccc2[nH]c(C(=O)NC(CC(C)C)C(=O)NC(CC3CCNC3=O)C(O)C#N)cc12 (centres unmarked) [Compound 134] | < 22 µM |  |  |  |
| CCCOc1cccc2[nH]c(C(=O)N[C@@H](CC(C)C)C(=O)N[C@H](C#N)C[C@@H]3CCNC3=O)cc12 [Compound 379] | < 22 µM | < 22 µM |  |  |
| COc1cccc2[nH]c(C(=O)N3C[C@H](OC)C[C@H]3C(=O)N[C@H](C#N)C[C@@H]3CCNC3=O)cc12 [Compound 407] | < 22 µM | < 22 µM |  |  |
| N#C[C@H](C[C@@H]1CCNC1=O)NC(=O)[C@H](CC1CC1)NC(=O)c1cc2c([nH]1)CCCC2 [Compound 711] | < 22 µM |  |  |  |
| COc1cccc2[nH]c(C(=O)N3CC4(CCOCC4)CC3C(=O)N[C@H](C#N)C[C@@H]3CCNC3=O)cc12 (some centres unmarked) [Compound 387] |  | > 30 µM |  |  |
